Earlier results in patent US11065213B2, “Amantadine compositions and preparations thereof” (Adamas Pharma, LLC, priority 2017, dated 2021).
Where two headings read alike, the source gives them in different places.

Tested on: LID in PD patients
Details: IR formulation

NC12CC3CC(CC(C3)C1)C2 [amantadine]
reduction in LID (200 mg/day): approximately 25% | reduction of LID (300 mg/day): ~40% | reduction of LID (300 to 400 mg/day): ~60%
